Test results published in PubChem BioAssay (NCI).
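Following 48 hours of exposure in 96-well plates, responses at five concentrations were used to interpolate endpoints linearly. GI50 = concentration required for 50% inhibition of growth. At the TGI there is no net growth.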

Key:
Assay in all cases: NCI anticancer screen, dose series, 48 h
RXF 393 renal = system: RXF 393 renal
IGROV1 ovarian = system: IGROV1 ovarian
MCF7 breast = system: MCF7 breast
HT29 colon = system: HT29 colon
HCT-116 colon = system: HCT-116 colon
NCI-H460 lung = system: NCI-H460 lung
TK-10 renal = system: TK-10 renal
UACC-62 melanoma = system: UACC-62 melanoma
OVCAR-3 ovarian = system: OVCAR-3 ovarian
HOP-92 NSCLC = system: HOP-92 NSCLC
SNB-19 CNS = system: SNB-19 CNS
T-47D breast = system: T-47D breast
HCT-15 colon = system: HCT-15 colon
RPMI-8226 leukemia = system: RPMI-8226 leukemia
SF-295 CNS = system: SF-295 CNS
NCI-H522 lung = system: NCI-H522 lung
MDA-MB-435 = system: MDA-MB-435
PC-3 prostate = system: PC-3 prostate
NCI/ADR-RES ovarian = system: NCI/ADR-RES ovarian
SF-539 CNS = system: SF-539 CNS
SNB-75 CNS = system: SNB-75 CNS
EKVX NSCLC = system: EKVX NSCLC
SN12C renal = system: SN12C renal
A498 renal = system: A498 renal
786-0 renal = system: 786-0 renal
UACC-257 melanoma = system: UACC-257 melanoma
ACHN renal = system: ACHN renal
A549 NSCLC = system: A549 NSCLC
OVCAR-5 ovarian = system: OVCAR-5 ovarian
HCC-2998 colon = system: HCC-2998 colon
KM12 colon = system: KM12 colon
MDA-MB-231 breast = system: MDA-MB-231 breast
NCI-H23 lung = system: NCI-H23 lung
DU-145 prostate = system: DU-145 prostate
SK-OV-3 ovarian = system: SK-OV-3 ovarian
HS 578T breast = system: HS 578T breast
OVCAR-4 ovarian = system: OVCAR-4 ovarian
SK-MEL-5 melanoma = system: SK-MEL-5 melanoma
SK-MEL-2 melanoma = system: SK-MEL-2 melanoma
U251 CNS = system: U251 CNS
UO-31 renal = system: UO-31 renal
CAKI-1 renal = system: CAKI-1 renal
SK-MEL-28 melanoma = system: SK-MEL-28 melanoma
COLO 205 colon = system: COLO 205 colon
K-562 leukemia = system: K-562 leukemia
BT-549 breast = system: BT-549 breast
HL-60(TB) leukemia = system: HL-60(TB) leukemia
M14 melanoma = system: M14 melanoma
LOX IMVI melanoma = system: LOX IMVI melanoma
MALME-3M melanoma = system: MALME-3M melanoma
MOLT-4 leukemia = system: MOLT-4 leukemia
SW-620 colon = system: SW-620 colon
OVCAR-8 ovarian = system: OVCAR-8 ovarian
HOP-62 NSCLC = system: HOP-62 NSCLC
NCI-H226 lung = system: NCI-H226 lung
CCRF-CEM leukemia = system: CCRF-CEM leukemia
SF-268 CNS = system: SF-268 CNS
SR leukemia = system: SR leukemia

In the case of `NC(N)=N/N=C/c1c(-c2ccc([N+](=O)[O-])cc2)nc2sccn12`, the TGI (RXF 393 renal) is reported as 7.55 µM, the TGI (IGROV1 ovarian) is reported as 36.4 µM and the TGI (MCF7 breast) is reported as 2.62 µM. It also gave a TGI (HT29 colon) of 2.95 µM, a TGI (HCT-116 colon) of 3.05 µM and a TGI (NCI-H460 lung) of 4.03 µM. It also gave a TGI (TK-10 renal) of 3.22 µM, a TGI (UACC-62 melanoma) of 3.22 µM and a TGI (OVCAR-3 ovarian) of 2.89 µM. For the same molecule, the TGI (HOP-92 NSCLC) was 3.52 µM, the TGI (SNB-19 CNS) was 2.74 µM and the TGI (T-47D breast) was 3.58 µM. The TGI (HCT-15 colon) was 23.7 µM, the TGI (RPMI-8226 leukemia) was 28.3 µM and the TGI (SF-295 CNS) was 2.87 µM. The TGI (NCI-H522 lung) was 3.83 µM, the TGI (MDA-MB-435) was 2.87 µM and the TGI (PC-3 prostate) was 2.93 µM. The TGI (NCI/ADR-RES ovarian) was over 100 µM, the TGI (SF-539 CNS) was 3.34 µM and the TGI (SNB-75 CNS) was 3.27 µM. It also gave a TGI (EKVX NSCLC) of 3.44 µM, a TGI (SN12C renal) of 3.2 µM and a TGI (A498 renal) of 3.21 µM. The TGI (786-0 renal) was 3.07 µM, the TGI (UACC-257 melanoma) was 3.65 µM and the TGI (ACHN renal) was 7.27 µM. For the same molecule, the TGI (A549 NSCLC) was 3.34 µM, the TGI (OVCAR-5 ovarian) was 3.11 µM and the TGI (HCC-2998 colon) was 2.73 µM. The TGI (KM12 colon) was 1.88 µM, the TGI (MDA-MB-231 breast) was 3.13 µM and the TGI (NCI-H23 lung) was 3.46 µM. The TGI (DU-145 prostate) was 3.21 µM, the TGI (SK-OV-3 ovarian) was 3.35 µM and the TGI (HS 578T breast) was 4.14 µM. The TGI (OVCAR-4 ovarian) was 2.97 µM, the TGI (SK-MEL-5 melanoma) was 7.98 µM and the TGI (SK-MEL-2 melanoma) was 3.33 µM. The TGI (U251 CNS) was 2.95 µM, the TGI (UO-31 renal) was 6.13 µM and the TGI (CAKI-1 renal) was 6.93 µM. It also gave a TGI (SK-MEL-28 melanoma) of 3.74 µM, a TGI (COLO 205 colon) of 1.96 µM and a TGI (K-562 leukemia) of 2.84 µM. For the same molecule, the TGI (BT-549 breast) was 3.44 µM, the TGI (HL-60(TB) leukemia) was 5.8 µM and the TGI (M14 melanoma) was 3.38 µM.
`COc1cc(-c2cc(-c3ccc(N(C)C)cc3)nc(N3CCOCC3)c2C#N)cc(OC)c1OC` gave a GI50 (RXF 393 renal) of 0.134 µM, a TGI (RXF 393 renal) of 3.85 µM and a GI50 (IGROV1 ovarian) of 0.727 µM. It also gave a TGI (IGROV1 ovarian) of 70 µM, a GI50 (MCF7 breast) of 1.24 µM and a TGI (MCF7 breast) of over 55.2 µM. For the same molecule, the GI50 (LOX IMVI melanoma) was 0.0676 µM, the TGI (LOX IMVI melanoma) was 0.225 µM and the GI50 (HT29 colon) was 0.385 µM. For the same molecule, the TGI (HT29 colon) was over 36 µM, the GI50 (HCT-116 colon) was 0.388 µM and the TGI (HCT-116 colon) was over 100 µM. The GI50 (MALME-3M melanoma) was 1.55 µM, the TGI (MALME-3M melanoma) was over 49.1 µM and the GI50 (NCI-H460 lung) was 0.289 µM. For the same molecule, the TGI (NCI-H460 lung) was over 61.6 µM, the GI50 (TK-10 renal) was 2.51 µM and the TGI (TK-10 renal) was over 100 µM. For the same molecule, the GI50 (UACC-62 melanoma) was 0.628 µM, the TGI (UACC-62 melanoma) was 1.71 µM and the GI50 (OVCAR-3 ovarian) was 12.9 µM. It also gave a TGI (OVCAR-3 ovarian) of over 83.2 µM, a GI50 (MOLT-4 leukemia) of 1.38 µM and a TGI (MOLT-4 leukemia) of over 100 µM. It also gave a GI50 (HOP-92 NSCLC) of 1.42 µM, a TGI (HOP-92 NSCLC) of over 29.9 µM and a GI50 (T-47D breast) of 0.529 µM. For the same molecule, the TGI (T-47D breast) was over 22.5 µM, the GI50 (HCT-15 colon) was 0.68 µM and the TGI (HCT-15 colon) was 44.1 µM. The GI50 (RPMI-8226 leukemia) was 0.0677 µM, the TGI (RPMI-8226 leukemia) was 5.08 µM and the GI50 (SF-295 CNS) was 0.381 µM. The TGI (SF-295 CNS) was 1.11 µM, the GI50 (NCI-H522 lung) was 0.286 µM and the GI50 (MDA-MB-435) was 0.843 µM. The TGI (MDA-MB-435) was 13.4 µM, the GI50 (PC-3 prostate) was 2.06 µM and the TGI (PC-3 prostate) was over 100 µM. For the same molecule, the GI50 (NCI/ADR-RES ovarian) was 0.246 µM, the TGI (NCI/ADR-RES ovarian) was over 91.4 µM and the GI50 (SF-539 CNS) was 2.22 µM. It also gave a TGI (SF-539 CNS) of over 54.8 µM, a GI50 (SNB-75 CNS) of 13.3 µM and a TGI (SNB-75 CNS) of over 76.9 µM. The GI50 (EKVX NSCLC) was 0.988 µM, the TGI (EKVX NSCLC) was over 100 µM and the GI50 (SW-620 colon) was 2.02 µM. For the same molecule, the TGI (SW-620 colon) was over 100 µM, the GI50 (SN12C renal) was 0.46 µM and the TGI (SN12C renal) was over 100 µM. For the same molecule, the GI50 (A498 renal) was 0.768 µM, the TGI (A498 renal) was 23.7 µM and the GI50 (786-0 renal) was 0.835 µM. The TGI (786-0 renal) was 13.4 µM, the GI50 (UACC-257 melanoma) was 1.18 µM and the TGI (UACC-257 melanoma) was over 82.9 µM. It also gave a GI50 (ACHN renal) of 1.02 µM, a TGI (ACHN renal) of over 100 µM and a GI50 (A549 NSCLC) of 1.25 µM. The TGI (A549 NSCLC) was over 100 µM, the GI50 (OVCAR-5 ovarian) was 0.248 µM and the TGI (OVCAR-5 ovarian) was over 100 µM. It also gave a GI50 (HCC-2998 colon) of 2.53 µM, a TGI (HCC-2998 colon) of 21.3 µM and a GI50 (KM12 colon) of 1.34 µM. It also gave a TGI (KM12 colon) of over 100 µM, a GI50 (MDA-MB-231 breast) of 0.463 µM and a TGI (MDA-MB-231 breast) of over 33.5 µM. For the same molecule, the GI50 (NCI-H23 lung) was 6.66 µM, the TGI (NCI-H23 lung) was over 100 µM and the GI50 (DU-145 prostate) was 9.12 µM. The TGI (DU-145 prostate) was over 100 µM, the GI50 (OVCAR-8 ovarian) was 1.27 µM and the TGI (OVCAR-8 ovarian) was over 100 µM. For the same molecule, the GI50 (SK-OV-3 ovarian) was 1.62 µM, the TGI (SK-OV-3 ovarian) was over 100 µM and the GI50 (HS 578T breast) was 22.1 µM. For the same molecule, the TGI (HS 578T breast) was over 100 µM, the GI50 (HOP-62 NSCLC) was 0.921 µM and the TGI (HOP-62 NSCLC) was 10.6 µM. It also gave a GI50 (NCI-H226 lung) of 0.27 µM, a TGI (NCI-H226 lung) of 0.995 µM and a GI50 (OVCAR-4 ovarian) of 21.4 µM. For the same molecule, the TGI (OVCAR-4 ovarian) was over 100 µM, the GI50 (SK-MEL-5 melanoma) was 0.171 µM and the TGI (SK-MEL-5 melanoma) was 0.729 µM. For the same molecule, the GI50 (SK-MEL-2 melanoma) was 1.14 µM, the TGI (SK-MEL-2 melanoma) was 17.9 µM and the GI50 (U251 CNS) was 1.96 µM. It also gave a TGI (U251 CNS) of over 84.6 µM, a GI50 (UO-31 renal) of 6.85 µM and a TGI (UO-31 renal) of over 60.8 µM. The GI50 (CAKI-1 renal) was 0.333 µM, the TGI (CAKI-1 renal) was over 33.8 µM and the GI50 (SK-MEL-28 melanoma) was 0.433 µM. It also gave a TGI (SK-MEL-28 melanoma) of 5.68 µM, a GI50 (COLO 205 colon) of 0.355 µM and a TGI (COLO 205 colon) of 24.2 µM. It also gave a GI50 (CCRF-CEM leukemia) of 1.21 µM, a TGI (CCRF-CEM leukemia) of over 100 µM and a GI50 (K-562 leukemia) of 0.961 µM. For the same molecule, the TGI (K-562 leukemia) was over 24.6 µM, the GI50 (BT-549 breast) was 0.471 µM and the TGI (BT-549 breast) was over 100 µM. The GI50 (SF-268 CNS) was 3.73 µM, the TGI (SF-268 CNS) was over 100 µM and the GI50 (HL-60(TB) leukemia) was 0.468 µM. For the same molecule, the GI50 (SR leukemia) was 0.26 µM, the TGI (SR leukemia) was 4.04 µM and the GI50 (M14 melanoma) was 0.322 µM. It also gave a TGI (M14 melanoma) of 1.47 µM.
